From publication doi:10.1101/2020.07.07.192294v1 (biorxiv, 2020) come the findings set out here.

One assay has as its target T1, CYP125 (Mycobacterium tuberculosis, UniProt P9WPP1).
T1 sequence (P9WPP1 1-433): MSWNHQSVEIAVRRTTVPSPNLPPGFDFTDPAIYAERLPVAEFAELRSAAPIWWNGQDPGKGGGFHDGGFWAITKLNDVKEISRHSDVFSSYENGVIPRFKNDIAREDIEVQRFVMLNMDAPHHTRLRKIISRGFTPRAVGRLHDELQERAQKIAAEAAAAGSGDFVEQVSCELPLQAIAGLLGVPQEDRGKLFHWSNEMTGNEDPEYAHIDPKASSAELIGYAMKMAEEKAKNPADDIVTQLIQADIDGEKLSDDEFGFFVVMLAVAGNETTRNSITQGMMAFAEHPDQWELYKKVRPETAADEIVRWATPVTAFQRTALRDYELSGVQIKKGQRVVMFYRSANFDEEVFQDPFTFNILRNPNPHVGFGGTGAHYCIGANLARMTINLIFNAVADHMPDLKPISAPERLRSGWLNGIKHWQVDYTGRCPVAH
Put plainly: biochemical.

For a further assay, the target named is T2, CYP124 (Mycobacterium tuberculosis, UniProt P9WPP3).
T2 sequence (P9WPP3 1-428): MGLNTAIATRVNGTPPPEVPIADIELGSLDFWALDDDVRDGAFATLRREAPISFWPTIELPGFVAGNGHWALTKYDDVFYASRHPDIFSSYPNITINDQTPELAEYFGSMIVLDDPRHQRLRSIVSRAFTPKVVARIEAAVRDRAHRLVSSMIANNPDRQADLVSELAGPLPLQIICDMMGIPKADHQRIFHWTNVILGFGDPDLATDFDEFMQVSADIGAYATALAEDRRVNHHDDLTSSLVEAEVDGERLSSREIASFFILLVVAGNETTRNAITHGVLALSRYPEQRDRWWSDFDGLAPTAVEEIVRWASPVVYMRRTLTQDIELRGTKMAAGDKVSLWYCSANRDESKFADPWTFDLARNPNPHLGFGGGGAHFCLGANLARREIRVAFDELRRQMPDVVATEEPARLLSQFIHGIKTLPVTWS
Put plainly: biochemical.

The target in assay [1] is T3, CYP142 (Rv3518c) (Mycobacterium tuberculosis, UniProt P9WPL5). Put plainly: biochemical.
The target in assay [2] is T4, CYP142 (Rv3518c) (Mycobacterium tuberculosis, UniProt P9WPL5).
T4 sequence (P9WPL5 1-398): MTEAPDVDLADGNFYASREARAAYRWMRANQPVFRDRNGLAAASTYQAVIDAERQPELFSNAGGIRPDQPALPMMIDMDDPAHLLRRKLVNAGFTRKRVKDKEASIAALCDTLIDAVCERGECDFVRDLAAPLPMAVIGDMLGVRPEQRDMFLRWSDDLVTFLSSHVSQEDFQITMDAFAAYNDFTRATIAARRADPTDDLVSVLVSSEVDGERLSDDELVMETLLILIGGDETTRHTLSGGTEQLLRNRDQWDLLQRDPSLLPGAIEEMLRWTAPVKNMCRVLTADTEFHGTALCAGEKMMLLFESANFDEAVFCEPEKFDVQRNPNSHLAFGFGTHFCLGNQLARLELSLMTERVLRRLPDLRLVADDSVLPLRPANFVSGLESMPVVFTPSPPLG
Put plainly: biochemical. The assay is classed as binding.

In assay [3] the target is T3, CYP142 (Rv3518c). The settings on record: read-out: Kdapp ± SE (μM) / CYP142; binder.

The structures appear in SMILES notation. Read-outs that look alike come from different tables or passages of the source.

As for `CC(C)CCC[C@@H](C)[C@H]1CC[C@H]2[C@@H]3[C@@H](O)C=C4C[C@@H](O)CC[C@]4(C)[C@H]3CC[C@]12C` [7βOHC], the Kd at CYP125 turned out to be 13 ± 2 µM; at CYP124, 11.1 ± 1.3 µM; at CYP142 (Rv3518c) [1], 6 ± 1.4 µM.
On to `Cc1cc(CCC(C)C)ccc1NC=NO` [cpd5', N′-hydroxy-N-(4-isopentyl-2-methylphenyl)formimidamide], for which the results for the Kd on CYP125, on CYP142 (Rv3518c) [2] and on CYP124 were 16 ± 5 µM, 0.17 ± 0.06 µM and 1.93 ± 0.16 µM, respectively.
For `CC(C)CCC[C@@H](C)[C@H]1CC[C@H]2[C@@H]3CCC4=CC(=O)CC[C@]4(C)[C@H]3CC[C@]12C` [Cholestenone], the Kd at CYP125 amounted to 10.8 ± 1.8 µM; at CYP124 it was 3.4 ± 0.6 µM.
As for `CC(C)CCC[C@@H](C)[C@H]1CC[C@H]2[C@@H]3C(=O)C=C4C[C@@H](O)CC[C@]4(C)[C@H]3CC[C@]12C` [7ketoC], the Kd turned out to be 12.4 ± 1.7 µM on CYP125, 6.5 ± 0.8 µM at CYP124 and 4.3 ± 0.8 µM at CYP142 (Rv3518c) [1].
In the case of `O=C(O)CCCCCCCn1ccnc1` [ChpImi], the Kd came to 1.61 ± 0.03 µM at CYP125, 31 ± 3 µM at CYP142 (Rv3518c) [2] and 3.1 ± 0.5 µM on CYP124.
On to `CC(C)CCC[C@@H](C)[C@H]1CC[C@H]2[C@@H]3[C@@H](O)CC4=CC(=O)CC[C@]4(C)[C@H]3CC[C@]12C` [7βOHC-one], for which the Kd at CYP142 (Rv3518c) [3] worked out at 27 ± 8 µM; on CYP125 (read-out: Kdapp ± SE (μM) / CYP125, binder), 26 ± 3 µM; on CYP124 (read-out: Kdapp ± SE (μM) / CYP124, binder) it was 13.2 ± 1.7 µM.
Turning to `CCOC(=O)CCCCCCn1ccnc1` [CHImi], the results for the Kd at CYP125, at CYP142 (Rv3518c) [2] and on CYP124 were 31 ± 4 µM, 3.73 ± 0.19 µM and 1.45 ± 0.08 µM, respectively.
